Test [1] addresses T1, human CYP11B1 (Homo sapiens, UniProt P15538).
T1 construct: expressed in transfected cells
T1 sequence (P15538 25-503): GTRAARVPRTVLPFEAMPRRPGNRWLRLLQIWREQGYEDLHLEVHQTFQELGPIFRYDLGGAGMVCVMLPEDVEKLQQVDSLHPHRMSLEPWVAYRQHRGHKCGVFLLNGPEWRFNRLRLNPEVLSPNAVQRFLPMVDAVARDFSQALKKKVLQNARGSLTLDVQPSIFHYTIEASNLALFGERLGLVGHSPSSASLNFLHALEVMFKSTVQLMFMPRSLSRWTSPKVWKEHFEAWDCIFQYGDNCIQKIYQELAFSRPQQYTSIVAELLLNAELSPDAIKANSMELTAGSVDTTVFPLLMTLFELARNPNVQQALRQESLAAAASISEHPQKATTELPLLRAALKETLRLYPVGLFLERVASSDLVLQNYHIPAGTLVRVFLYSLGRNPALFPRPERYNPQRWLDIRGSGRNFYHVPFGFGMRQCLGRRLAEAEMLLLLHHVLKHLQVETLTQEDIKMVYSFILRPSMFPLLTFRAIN
Kind of test: Inhibition of hCYP11B1 in transfected V79 cells. It is filed as cell-based. Conditions: hamster V79 cells expressing human CYP11B1; substrate 11-deoxycortisol 200 nM. In outline: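 Reactions started with 200 nM 11-deoxycortisol, ran for 30 min and were stopped with ethyl acetate, after a 2 h compound preincubation. The host was stably transfected V79 hamster cells carrying human CYP11B1 plus rat P450 reductase. Percent inhibition, from LC-MS/MS or HPLC (260 nm) quantitation of substrate and product, gave the IC50.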

The target in test [2] is T2, human CYP11B2 (Homo sapiens, UniProt P19099).
T2 construct: expressed in transfected cells
T2 sequence (P19099 25-503): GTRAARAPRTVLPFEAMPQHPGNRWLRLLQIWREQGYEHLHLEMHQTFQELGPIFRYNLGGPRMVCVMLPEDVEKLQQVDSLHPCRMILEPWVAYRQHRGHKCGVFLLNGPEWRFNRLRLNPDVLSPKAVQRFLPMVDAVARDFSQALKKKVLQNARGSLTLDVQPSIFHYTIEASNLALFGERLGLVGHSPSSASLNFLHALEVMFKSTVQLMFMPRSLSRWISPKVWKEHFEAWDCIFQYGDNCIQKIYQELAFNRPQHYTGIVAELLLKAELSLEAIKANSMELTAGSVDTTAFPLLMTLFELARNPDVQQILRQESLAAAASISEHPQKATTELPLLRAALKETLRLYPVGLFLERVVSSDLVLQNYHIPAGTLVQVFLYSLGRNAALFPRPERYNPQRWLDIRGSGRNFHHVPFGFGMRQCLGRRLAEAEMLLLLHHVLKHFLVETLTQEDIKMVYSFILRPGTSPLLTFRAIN
Kind of test: Inhibition of hCYP11B2 in transfected V79 cells. It is filed as cell-based. The settings on record: hamster V79 cells expressing human CYP11B2; substrate 11-deoxycorticosterone 200 nM. The method in brief: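 The substrate (200 nM, 30 min) was added after a 2 hour compound pre-incubation in lentivirus-transduced V79 cells stably expressing human CYP11B2 plus rat NADPH-P450 reductase.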

In general, IC50 refers to the concentration that inhibits the measured activity by half. Read a high IC50 as lower potency.

As for `COc1ccc(CCC(=O)N2CCOc3c(-c4ccc(C#N)cc4)cncc32)cc1` [O51, 4-(4-(3-(4-Methoxyphenyl)propanoyl)-3,4-dihydro-2H-pyrido[4,3-b][1,4]oxazin-8-yl)benzo nitrile], the results for the IC50 in test [1] and in test [2] were 24 nM and 0.7 nM, respectively.
Taken in the same sequence, the figures for `COc1cccc(CCC(=O)N2CCOc3c(-c4ccc(C#N)cc4)cncc32)c1` [O52, 4-(4-(3-(3-Methoxyphenyl)propanoyl)-3,4-dihydro-2H-pyrido[4,3-b][1,4]oxazin-8-yl)benzonitrile] were 51 nM and 1.1 nM.
For `N#Cc1ccc(-c2cncc3c2OCCN3C(=O)CCc2ccc(C(F)(F)F)cc2)cc1` [O53, 4-(4-(3-(4-(Trifluoromethyl)phenyl)propanoyl)-3,4-dihydro-2H-pyrido[4,3-b][1,4]oxazin-8-yl)benzonitrile], the concentration for half-maximal inhibition (IC50) in test [1] turned out to be 55 nM; in test [2], 8.2 nM.
With `N#Cc1ccc(-c2cncc3c2OCCN3C(=O)CCc2cccc(C(F)(F)F)c2)cc1` [O54], the IC50 in test [1] is 119 nM; in test [2] it was 6.9 nM.
For the compound `N#Cc1ccc(-c2cncc3c2OCCN3C(=O)C2CCN(S(=O)(=O)c3cccc(F)c3)CC2)cc1` [O55, 4-(4-(1-((3-Fluorophenyl)sulfonyl)piperidine-4-carbonyl)-3,4-dihydro-2H-pyrido[4,3-b][1, 4]oxazin-8-yl)benzonitrile], the results for the 50% inhibitory concentration (IC50) in test [1] and in test [2] were 114 nM and 2.1 nM, respectively.
In the case of `N#Cc1ccc(-c2cncc3c2OCCN3C(=O)C2CNC2)cc1` [O56, 4-(4-(Azetidine-3-carbonyl)-3,4-dihydro-2H-pyrido[4,3-b][1,4]oxazin-8-yl)benzonitrile], the concentration for half-maximal inhibition (IC50) was found to be 292 nM in test [1] and 5.1 nM in test [2].
In the same order, the values of `N#Cc1ccc(-c2cncc3c2OCCN3C(=O)C2CN(C(=O)c3ccc(F)cc3)C2)cc1` [O57, 4-(4-(1-(4-Fluorobenzoyl)azetidine-3-carbonyl)-3,4-dihydro-2H-pyrido[4,3-b][1,4]oxazin-8-yl)benzonitrile] are 102 nM and 1.6 nM.
Take `N#Cc1ccc(-c2cncc3c2OCCN3C(=O)C2CN(C(=O)c3cccc(F)c3)C2)cc1` [O58, 4-(4-(1-(3-Fluorobenzoyl)azetidine-3-carbonyl)-3,4-dihydro-2H-pyrido[4,3-b][1,4]oxazin-8-yl)benzonitrile]: the figures for the IC50 in test [1] and in test [2] were 132 nM and 1.9 nM, respectively.
Taken in the same sequence, the figures for `N#Cc1ccc(-c2cncc3c2OCCN3C(=O)CNC(=O)c2ccc(F)cc2)cc1` [O59, N-(2-(8-(4-Cyanophenyl)-2,3-dihydro-4H-pyrido[4,3-b][1,4]oxazin-4-yl)-2-oxoethyl)-4-fluorobenzamide] were 276 nM and 2.8 nM.
In the same order, the values of `N#Cc1ccc(-c2cncc3c2OCCN3C(=O)C2CN(S(=O)(=O)c3ccc(F)cc3)C2)cc1` [O60, 4-(4-(1-((4-Fluorophenyl)sulfonyl)azetidine-3-carbonyl)-3,4-dihydro-2H-pyrido[4,3-b][1,4]oxazin-8-yl)benzonitrile] are 2.5 nM and 0.6 nM.
Taken in the same sequence, the figures for `N#Cc1ccc(-c2cncc3c2OCCN3C(=O)C2CN(S(=O)(=O)c3cccc(F)c3)C2)cc1` [O61, 4-(4-(1-((3-Fluorophenyl)sulfonyl)azetidine-3-carbonyl)-3,4-dihydro-2H-pyrido[4,3-b][1,4]oxazin-8-yl)benzonitrile] were 3.7 nM and 0.51 nM.
As for `N#Cc1ccc(-c2cncc3c2OCCN3C(=O)C2CN(S(=O)(=O)c3ccc([N+](=O)[O-])cc3)C2)cc1` [O62, 4-(4-(1-((4-Nitrophenyl)sulfonyl)azetidine-3-carbonyl)-3,4-dihydro-2H-pyrido[4,3-b][1,4]oxazin-8-yl)benzonitrile], the values for the concentration for half-maximal inhibition (IC50) in test [1] and in test [2] were 178 nM and 3.3 nM, respectively.
For the compound `N#Cc1ccc(-c2cncc3c2OCCN3C(=O)C2CN(S(=O)(=O)c3cccc([N+](=O)[O-])c3)C2)cc1` [O63, 4-(4-(1-((3-Nitrophenyl)sulfonyl)azetidine-3-carbonyl)-3,4-dihydro-2H-pyrido[4,3-b][1,4]oxazin-8-yl)benzonitrile], the half-maximal inhibitory concentration (IC50) in test [1] amounted to 181 nM; in test [2], 2 nM.
Taken in the same sequence, the figures for `N#Cc1ccc(-c2cncc3c2OCCN3C(=O)C2CN(S(=O)(=O)c3cccs3)C2)cc1` [O64, 4-(4-(1-(Thiophen-2-ylsulfonyl)azetidine-3-carbonyl)-3,4-dihydro-2H-pyrido[4,3-b][1,4]oxazin-8-yl)benzonitrile] were 63 nM and 0.5 nM.
As to `Cc1ccc(S(=O)(=O)N2CC(C(=O)N3CCOc4c(-c5ccc(C#N)cc5)cncc43)C2)cc1` [O65, 4-(4-(1-Tosylazetidine-3-carbonyl)-3,4-dihydro-2H-pyrido[4,3-b][1,4]oxazin-8-yl)benzonitrile], the IC50 amounted to 521 nM in test [1] and 2.5 nM in test [2].
Taken in the same sequence, the figures for `COc1cccc(S(=O)(=O)N2CC(C(=O)N3CCOc4c(-c5ccc(C#N)cc5)cncc43)C2)c1` [O66, 4-(4-(1-((3-Methoxyphenyl)sulfonyl)azetidine-3-carbonyl)-3,4-dihydro-2H-pyrido[4,3-b][1, 4]oxazin-8-yl)benzonitrile] were 495 nM and 4.5 nM.
In the case of `COc1ccc(S(=O)(=O)N2CC(C(=O)N3CCOc4c(-c5ccc(C#N)cc5)cncc43)C2)cc1` [O67, 4-(4-(1-((4-Methoxyphenyl)sulfonyl)azetidine-3-carbonyl)-3,4-dihydro-2H-pyrido[4,3-b][1, 4]oxazin-8-yl)benzonitrile], the results for the IC50 in test [1] and in test [2] were 496 nM and 2.7 nM, respectively.
Taken in the same sequence, the figures for `N#Cc1ccc(-c2cncc3c2OCCN3C(=O)C2CN(S(=O)(=O)c3cccc(C#N)c3)C2)cc1` [O68, 3-((3-(8-(4-Cyanophenyl)-3,4-dihydro-2H-pyrido[4,3-b][1,4]oxazine-4-carbonyl)azetidin-1-yl)sulfonyl)benzonitrile] were 52 nM and 0.7 nM.
Taken in the same sequence, the figures for `N#Cc1ccc(-c2cncc3c2OCCN3C(=O)C2CN(S(=O)(=O)c3ccc(C#N)cc3)C2)cc1` [O69, 4-((3-(8-(4-Cyanophenyl)-3,4-dihydro-2H-pyrido[4,3-b][1,4]oxazine-4-carbonyl)azetidin-1-yl)sulfonyl)benzonitrile] were 57 nM and 2.1 nM.
Taken in the same sequence, the figures for `Cc1cccc(S(=O)(=O)N2CC(C(=O)N3CCOc4c(-c5ccc(C#N)cc5)cncc43)C2)c1` [O70, 4-(4-(1-(m-Tolylsulfonyl)azetidine-3-carbonyl)-3,4-dihydro-2H-pyrido[4,3-b][1,4]oxazin-8-yl)benzonitrile] were 31.6 nM and 1.4 nM.
In the case of `N#Cc1ccc(-c2cncc3c2OCCN3C(=O)C23CC(Nc4cccc(F)c4)(C2)C3)cc1` [O71, 4-(4-(3-((3-Fluorophenyl)amino)bicyclo[1.1.1]pentane-1-carbonyl)-3,4-dihydro-2H-pyrido[4,3-b][1,4]oxazin-8-yl)benzonitrile], the concentration for half-maximal inhibition (IC50) is 2170 nM in test [1] and 39 nM in test [2].
In the same order, the values of `N#Cc1ccc(-c2cncc3c2OCCN3C(=O)c2ccc(Oc3ccc(F)cc3)s2)cc1` [O72, 4-(4-(5-(4-Fluorophenoxy)thiophene-2-carbonyl)-3,4-dihydro-2H-pyrido[4,3-b][1,4]oxazin-8-yl)benzonitrile] are 292 nM and 3.6 nM.
With `N#Cc1ccc(-c2cncc3c2OCCN3C(=O)N2CC3(CN(Cc4cccc(F)c4)C3)C2)cc1` [O73, 4-(4-(6-(3-Fluorobenzyl)-2,6-diazaspiro[3.3]heptane-2-carbonyl)-3,4-dihydro-2H-pyrido[4,3-b][1,4]oxazin-8-yl)benzonitrile], the IC50 in test [1] is 3470 nM; in test [2] it was 45 nM.
Taken in the same sequence, the figures for `N#Cc1ccc(-c2cncc3c2OCCN3C(=O)C2CN(S(=O)(=O)c3cccc(C#N)c3)C2)cc1` [O74, 3-((3-(8-(4-Cyanophenyl)-3,4-dihydro-2H-pyrido[4,3-b][1,4]oxazine-4-carbonyl)azetidin-1-yl)sulfonyl)benzonitrile] were 99 nM and 1.3 nM.

Source of the values: patent US20260092074A1, “Annelated Pyridines as Steroidogenesis Inhibitors, Preparation Method and Use Thereof” (Guangzhou Vinnocent Pharmaceutical Limited, priority 2022, published 2026).
